Earlier results in US20110252694A1, “COMPOSITIONS FOR DRIP FUMIGATION” (priority 2010, published 2011).

Legend:
[1] = tested on: weeds, nematodes, and soil pathogens; settings: compared with methyl bromide
[2] = tested on: plant; settings: when used in effective concentrations

What does the source list for CI [Methyl Iodide, methyl iodide]?
combating weeds, nematodes, and soil pathogens [1]: equal to or better than methyl bromide; plant toxicity [2]: does not result in plant toxicity
